The target in this assay is T1, recombinant human LTA4 hydrolase (rhLTA4H) (Homo sapiens, UniProt P09960).
T1 sequence (P09960 1-611): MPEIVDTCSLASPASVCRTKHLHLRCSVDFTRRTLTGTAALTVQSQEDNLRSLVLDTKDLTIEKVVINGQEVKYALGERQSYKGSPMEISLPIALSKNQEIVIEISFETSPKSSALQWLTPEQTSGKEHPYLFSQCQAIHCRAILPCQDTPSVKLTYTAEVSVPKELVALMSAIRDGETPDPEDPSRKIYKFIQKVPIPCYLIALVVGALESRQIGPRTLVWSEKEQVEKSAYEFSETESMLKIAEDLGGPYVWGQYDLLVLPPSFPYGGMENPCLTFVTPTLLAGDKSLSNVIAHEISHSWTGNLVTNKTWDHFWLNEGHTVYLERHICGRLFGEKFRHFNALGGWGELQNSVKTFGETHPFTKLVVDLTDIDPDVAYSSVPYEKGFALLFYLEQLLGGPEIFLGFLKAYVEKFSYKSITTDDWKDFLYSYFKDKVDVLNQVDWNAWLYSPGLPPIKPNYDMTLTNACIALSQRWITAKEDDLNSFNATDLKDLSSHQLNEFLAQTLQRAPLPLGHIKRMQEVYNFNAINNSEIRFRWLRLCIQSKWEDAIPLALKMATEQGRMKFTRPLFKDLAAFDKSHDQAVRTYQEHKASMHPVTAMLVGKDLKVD
Nature of the assay: Recombinant human LTA4 hydrolase assay for LTA4 hydrolase inhibitor activity. The note with it: for pIC50: Recombinant Human LTA4 Hydrolase Assay IC50 LTA4H, recombinant hLTA4H; for inhibition at 3 µM: read-out: Recombinant Human LTA4 Hydrolase Assay, % at 3 μM; for inhibition at 100 µM: read-out: Recombinant Human LTA4 Hydrolase Assay, % at 100 μM.

The values below come from patent publication US6506876B1, “LTA4 hydrolase inhibitor pharmaceutical compositions and methods of use” (G.D. Searle & Co., priority 1994, dated 2003).

pIC50: −log10 of the molar value. Counter-ions that a name gives are not always drawn.

Method: One or more predetermined amounts of a compound of the invention were incubated in assay buffer (0.1 M potassium phosphate, 5 mg/ml fatty acid free BSA, 10% DMSO, pH 7.4) for 10 minutes at room temperature with 250 ng of recombinant hLTA4H to allow binding, if any, between the enzyme and inhibitor. The stock enzyme solution was 1 mg/ml LTA4 hydrolase, 50 mM Tris, pH 8.0, 150 mM NaCl, 2.5 mM beta-mercaptoethanol, 50% glycerol. […] Each reaction was carried out at room temperature for 10 minutes. The reaction was stopped by diluting 25 μl of the reaction mixture with 500 μl of the assay buffer without DMSO. LTB4 was quantified in the diluted sample by a commercially available enzyme-linked immunoassay [Caymen Chemical Co., Ann Arbor, Mich.] using the method recommended in the manufacturer's instructions and compared to the amount of LTB4 produced in a negative control (i.e., essentially identical conditions except without addition of an inhibitor compound). The IC50 was routinely calculated from the data produced.

For `CCOC(=O)[C@@H]1CCN(CCOc2ccc(Cc3ccccc3)cc2)[C@H](C)C1` (relative stereo) [Example 298], the pIC50 was 5.60. On to `c1ccc(Cc2ccc(OCCn3ccc4ncnc-4c3)cc2)cc1` [340 A], for which the negative-log IC50 (pIC50) is 7.96. On the same count and under the same terms, the value for `c1ccc(Cc2ccc(OCCCn3cnc4cccnc43)cc2)cc1` [341 A] was 5.24.

As for `c1ccc(COc2ccc(OCCn3cnc4cccnc43)cc2)cc1` [346 A], the inhibition at 3 µM is 31%. Regarding `c1ccc(COc2ccc(OCCn3cccc4ncnc3-4)cc2)cc1` [346 C], the negative logarithm of the IC50 (pIC50) is 5.66.

On to `c1ccc(Oc2ccc(OCCCn3cnc4cccnc43)cc2)cc1` [350 A], for which the pIC50 is 4.72.

For the compound `c1ccc(Oc2ccc(OCCCn3cnc4ccncc43)cc2)cc1` [351 A], the negative-log IC50 (pIC50) is 5.97. Take `Fc1ccc(Oc2ccc(OCCn3cnc4cccnc43)cc2)cc1` [354 A]: the inhibition at 3 µM is 51%.

As for `c1ccc(Cc2ccc(OCCn3cnc4cncnc43)cc2)cc1` [357 B], the pIC50 was 6.14.

With `c1ccc(Cc2ccc(OCCn3cncc4ncnc3-4)cc2)cc1` [357 D], the pIC50 is 7.40. As for `c1ccc(Cc2ccc3c(c2)CC(Cn2cnc4cccnc42)O3)cc1` (stereo not shown) [359 A], the negative-log IC50 (pIC50) was 4.00. `c1ccc(Cc2ccc3c(c2)CC(Cn2cnc4ncccc42)O3)cc1` (stereo not shown) [359 B]: the pIC50 was 5.00. The same measure, in the same setting: the value for `c1ccc(Cc2ccc3c(c2)CC(Cn2cccc4ncnc2-4)O3)cc1` (stereo not shown) [359 C] was 5.46. Consider `c1ccc(Cc2ccc3c(c2)CC(Cn2nnc4cccnc42)O3)cc1` (stereo not shown) [360 A], for which the inhibition at 100 µM was determined as 36%. For the compound `c1ccc(Cc2ccc3c(c2)CC(Cn2nc4cccnc4n2)O3)cc1` (stereo not shown) [360 B], the inhibition at 100 µM is 19%. In the case of `c1ccc(Cc2ccc3c(c2)CC(Cn2nnc4ncccc42)O3)cc1` (stereo not shown) [360 C], the pIC50 is 5.30.

For the compound `c1ccc(Cc2ccc3c(c2)CC(Cn2nc4ccncc4n2)O3)cc1` (stereo not shown) [361 A], the inhibition at 100 µM was 24%. Take `c1ccc(Cc2ccc3c(c2)CC(Cn2nnc4cnccc42)O3)cc1` (stereo not shown) [361 B]: the negative-log IC50 (pIC50) was 5.15.

With `O=C(O)c1ccc(-c2ccc(OCCN3CCCC3)cc2)cc1` [Example 63, 4-[4-[2-(1-pyrrolidinyl)ethoxy]phenyl]benzoic acid], the “Recombinant Human LTA4 Hydrolase Assay, % at 25 μM” value amounted to 40% at 25. On to `O=C(O)c1ccc(Oc2ccc(OCCN3CCCC3)cc2)cc1` [Example 64, 4-[4-[2-(1-pyrrolidinyl)ethoxy]phenoxy]benzoic acid], for which the “Recombinant Human LTA4 Hydrolase Assay, % at 25 μM” value worked out at 52% at 25. In the case of `c1ccc(Oc2ccc(OCCN3CCCC3)nc2)cc1` [Example 65, 5-phenoxy-2-[2-(1-pyrrolidinyl)ethoxy]pyridine], the pIC50 is 6.96. Take `c1ccc(Oc2ccc(NCCN3CCCC3)cc2)cc1` [Example 71, N-(4-phenoxyphenyl)-1-pyrrolidine ethanamine, monohydrochloride]: the negative logarithm of the IC50 (pIC50) is 5.19.

Take `Clc1cc(OCCN2CCCC2)ccc1Cc1ccccc1` [Example 114]: the pIC50 is 5.52. Take `Cc1cc(Cc2ccccc2)ccc1OCCN1CCCC1` [Example 117]: the pIC50 was 5.41. As for `Cc1cc(OCCN2CCCC2)ccc1Cc1ccccc1` [Example 118], the pIC50 was 5.05. Still for that read-out and setting: the value for `Fc1cc(Cc2ccccc2)cc(F)c1OCCN1CCCC1` [Example 119] was 5.40; that for `Fc1cc(OCCN2CCCC2)c(F)cc1Cc1ccccc1` [Example 120] was 5.10; that for `COC(=O)c1cc(Cc2ccccc2)ccc1OCCN1CCCC1` [Example 123] was 5.15. Take `COc1cc(Cc2ccccc2)ccc1OCCN1CCCC1` [Example 124]: the pIC50 is 4.60. Regarding `COc1ccccc1Cc1ccc(OCCN2CCCC2)cc1` [Example 129], the negative logarithm of the IC50 (pIC50) was 4.80.

Regarding `c1cc(OCCN2CCCC2)ccc1Cc1ccc2c(c1)OCO2` [Example 130], the pIC50 was 6.77. Turning to `c1ccc2nc(Cc3ccc(OCCN4CCCC4)cc3)ccc2c1` [Example 131], the negative-log IC50 (pIC50) was 5.37.

For the compound `Fc1ccccc1Cc1ccc(OCCN2CCCC2)cc1` [Example 141], the negative logarithm of the IC50 (pIC50) is 7.89.

Take `Clc1cccc(Cc2ccc(OCCN3CCCC3)cc2)c1` [Example 143]: the negative-log IC50 (pIC50) is 7.25. On to `COc1ccc(Cc2ccc(OCCN3CCCC3)cc2)cc1F` [Example 144], for which the pIC50 is 7.10.

Consider `c1ccc2cc(COc3ccc(OCCN4CCCC4)cc3)ccc2c1` [Example 200], for which the negative logarithm of the IC50 (pIC50) was 6.46.

`c1ccc2ncc(COc3ccc(OCCN4CCCC4)cc3)cc2c1` [Example 201]: the negative-log IC50 (pIC50) was 6.48.

Turning to `Cc1nc(COc2ccc(OCCN3CCCC3)cc2)cs1` [Example 202], the inhibition at 3 µM worked out at 44%. `Brc1ccc(COc2ccc(OCCN3CCCC3)cc2)cc1` [Example 203]: the pIC50 was 6.42. With `Clc1cccc(Cl)c1COc1ccc(OCCN2CCCC2)cc1` [Example 204], the “Recombinant Human LTA4 Hydrolase Assay, % at 25 μM” value came out at 49% at 25.

Regarding `Fc1ccc(COc2ccc(OCCN3CCCC3)cc2)cc1` [Example 205], the pIC50 is 6.05. Take `Clc1cccc(COc2ccc(OCCN3CCCC3)cc2)c1` [Example 206]: the negative-log IC50 (pIC50) was 6.70. With `Fc1ccccc1COc1ccc(OCCN2CCCC2)cc1` [Example 207], the negative-log IC50 (pIC50) is 6.66.

As for `Cc1ccccc1COc1ccc(OCCN2CCCC2)cc1` [Example 210], the “Recombinant Human LTA4 Hydrolase Assay, % at 25 μM” value stood at 4% at 25 μM.

For `Cc1ccc(COc2ccc(OCCN3CCCC3)cc2)cc1` [Example 212], the pIC50 was 5.52.

On to `COc1ccc(COc2ccc(OCCN3CCCC3)cc2)cc1` [Example 213], for which the pIC50 was 5.89. On to `c1ccc2c(COc3ccc(OCCN4CCCC4)cc3)cccc2c1` [Example 214], for which the pIC50 was 5.55.

Take `NC(=O)C1CCN(CCCOc2ccc(Cc3ccccc3)cc2)CC1` [Example 226]: the inhibition at 100 µM came out at 4%.

`O=C(OCc1ccccc1)[C@@H]1CCCN1CCCOc1ccc(Cc2ccccc2)cc1` [Example 228]: the inhibition at 3 µM turned out to be 28%.

As for `NC(=O)C1CCN(CCOc2ccc(Cc3nccs3)cc2)CC1` [Example 231], the negative logarithm of the IC50 (pIC50) was 5.30. `COc1ccc(Cc2ccc(OCCN3CCC(C(N)=O)CC3)cc2)cc1` [Example 232]: the pIC50 was 5.68. Still for that read-out and setting: the same measure for `NC(=O)C1CCN(CCOc2ccc(Cc3ccc(Cl)cc3)cc2)CC1` [Example 234]: 5.10; for `NC(=O)C1CCN(CCOc2ccc(Cc3ccc(F)cc3)cc2)CC1` [Example 235]: 5.00; for `NC(=O)C1CCN(CCOc2ccc(Cc3cccnc3)cc2)CC1` [Example 236]: 4.70. On to `NC(=O)C1CCCN(CCOc2ccc(Cc3ccccc3)cc2)C1` (stereo not shown) [Example 243], for which the negative logarithm of the IC50 (pIC50) was 7.15. For `NC(=O)C1CCCN(CCCOc2ccc(Cc3ccccc3)cc2)C1` (stereo not shown) [Example 244], the inhibition at 100 µM was 15%. For `c1ccc(Cc2ccc(OCCN3CCC4(CC3)OCCO4)cc2)cc1` [Example 246], the pIC50 is 5.15. Consider `CCOC(=O)CCNC(=O)C1CCN(CCOc2ccc(Cc3ccccc3)cc2)CC1` [Example 249], for which the negative-log IC50 (pIC50) is 5.49. For the compound `CNC(=O)C1CCN(CCOc2ccc(Oc3ccccc3)cc2)CC1` [Example 255], the pIC50 is 6.55. Turning to `CC(C)(C)OC(=O)C1CCCN1CCCOc1ccc(Cc2ccccc2)cc1` (stereo not shown) [Example 260], the inhibition at 3 µM worked out at 14%. In the case of `O=C(CCNCCCOc1ccc(Cc2ccccc2)cc1)OCc1ccccc1` [Example 261], the negative logarithm of the IC50 (pIC50) is 5.90.
